The results in this text go back to PMC10540216, “Activity Guided Azide-methyllysine Photo-trapping for Substrate Profiling of Lysine Demethylases” (Journal of the American Chemical Society, 2023).

Assay [1] has as its system DOT1L. Briefly: Methylation of eIF4A3-K374 peptides by KMT (MALDI-TOF MS). The conditions noted are these: 20 µM KMT, 10 µM peptide, 200 µM SAM. The format is biochemical. Here is the method:
(§1) expression constructs in pET28a or pET 28-MHL were obtained from Addgene: CAMKMT […]
(§2) (Addgene #60091) and METTL21C (Addgene #60100). Plasmids were transformed into E. Coli BL21 (DE3) competent cells (Invitrogen) using appropriate resistant antibiotic. A single colony was picked up and grown overnight at 37 °C in 10 mL of Luria-Bertani (LB) broth in the presence of 50 μg/mL kanamycin and 35 μg/mL chloramphenicol. The culture was diluted 100-fold and allowed to grow at 37 °C to an optical density (OD600) of a minimum of 0.8, and protein expression was induced overnight at 17 °C with 0.5 to 1.0 mM IPTG in an Innova 44® Incubator shaker (New Brunswick Scientific). Proteins were purified as follows: harvested cells were resuspended in 15 mL lysis buffer (50 mM Tris-HCl pH 8.0, 200 mM NaCl, 5 mM β-mercaptoethanol, 10% glycerol, 25 mM imidazole, Lysozyme, DNase, and Roche protease inhibitor cocktail). The cells were lysed by pulsed sonication (Qsonica-Q700), and centrifuged at 13,000 rpm for 40 min at 4°C. The soluble extracts were subject to Ni-NTA agarose resin (Thermo) according to manufacturer’s instructions. After passing 20 volumes of washing buffer (50 mM Tris-HCl pH 8.0, 200 mM NaCl, 5 mM β-mercaptoethanol, 10% glycerol, and 25 mM imidazole), proteins were eluted with a buffer containing 50 mM Tris-HCl pH 8.0, 200 mM NaCl, 5 mM β-mercaptoethanol, 10% glycerol, and 400 mM imidazole. Proteins were further purified by size exclusion chromatography (Superdex-200) using AKTA pure FPLC system (GE healthcare) with buffer containing 50 mM Tris-HCl pH 8.0, 200 mM NaCl, and 10% glycerol. Purified proteins were concentrated using Pierce™ Protein Concentrator PES, 10K MWCO, 5-20 mL (Thermo Scientific™ 88527). The protein concentration was determined using Bradford assay kit (BioRad Laboratories) with BSA as a standard. The concentrated proteins were stored at -80 °C before use. […]
(§3) 16. Methylation activity of wild type KMTs on eIF4A3-K374me0/1/2 peptides 20 µM lysine methyltransferase, 10 µM eIF4A3-me0/1/2 peptide and 200 µM SAM were incubated at room temperature for 1-2 hours in 50 mM Tris pH 8.0. Reaction was stopped by storing the microcentrifuge tubes on ice. After mixing, 0.8 µL of sample and 0.8 µL of α-cyano-4-hydroxycinnamic acid (CHCA) (dissolved in 50:50 0.1% TFA and acetonitrile) were combined on a MALDI plate. Samples were ionized using reflectron positive mode on Bruker Daltonics UltrafleXtreme MALDI TOF with detection carried out from 700-3500 m/z. Bruker Flex Analysis software was used to analyze the MALDI-TOF MS spectra.
(§4) 17. Isothermal Titration Calorimetry […]
(§5) The microsyringe (40µL) was loaded with 1.1 mM peptide and injected into the cell (200µL), occupied by CBX1 chromodomain at a concentration of 110 µM. […]

Assay [2] concerns METTL20. The assay is described as above. Type of assay: biochemical. The conditions noted are these: 20 µM KMT, 10 µM peptide, 200 µM SAM. As to the method: as §1, §2, §3, §4, §5
Assay [3] concerns METTL21A. The assay is described as above. The format is biochemical. The conditions noted are these: 20 µM KMT, 10 µM peptide, 200 µM SAM. Here is the method:
as §1, §2, §3, §4, §5

The subject of assay [4] is METTL21C. Described as above. Type of assay: biochemical. The conditions noted are these: 20 µM KMT, 10 µM peptide, 200 µM SAM. Here is the method:
as §1, §2, §3, §4, §5

Assay [5] concerns G9a. The description is as above. The format is biochemical. The conditions noted are these: 20 µM KMT, 10 µM peptide, 200 µM SAM. Here is the method: (§6) 7. Expression and purification of lysine methyltransferases and Chromodomains […]
as §3, §4
(§7) The microsyringe (40µL) was loaded with 1.1 mM peptide and injected into the cell (200µL), occupied by CBX1 chromodomain at a concentration of 110 µM. Data was fitted to a single binding site model using Microcal ITC200 Software with Origin Lab 7.
(§8) KDM4A mammalian expression plasmid in CMV vector was purchased from Addgene (plasmid #24180). Full-length G9a in pCDNA3 vector was kind from Prof. Minkui Luo at the Memorial Sloan-Kettering Cancer Center. HEK293T/17 cells (ATCC) were grown in a T25 containing Delbucco’s Modified Eagle Medium (DMEM) (Corning) with 10% FBS at 37 °C, 5% CO2, and 95% relative humidity. When cells reached 80% confluency, 5 µg of plasmid and 10 µg

Assay [6] deals with SUV39H2. The description is as above. Type of assay: biochemical. The conditions noted are these: 20 µM KMT, 10 µM peptide, 200 µM SAM. Here is the method:
as §6, §3, §4, §7, §8

The target of assay [7] is T1, CBX1 chromodomain (Homo sapiens, UniProt P83916).
T1 construct: occupied by CBX1 chromodomain at a concentration of 110 µM; 6xHis (N); made in house
Briefly: Isothermal titration calorimetry of peptide binding to CBX1 chromodomain. Conditions: ITC, 25 °C, 1.1 mM peptide into 110 µM CBX1 chromodomain, 50mM Tris pH 8.0. Here is the method: as §6
17. Isothermal Titration Calorimetry
Isothermal titration calorimetry (ITC) was performed with an ITC200 instrument (MicroCal, Malvern). Experiments were conducted at 25 °C while stirring at 750 rpm. Buffers of protein […]
were matched to 200mM NaCl, 10% glycerol, and 50mM Tris pH 8.0. Each titration was performed as follows: one initial injection of 0.4 µL for 0.8 seconds, followed by 19 injections of 2.0 µL for 4 seconds, with ≥2 mins between each injection. The initial injection was discarded prior to data analysis. The microsyringe (40µL) was loaded with 1.1 mM peptide and injected into the cell (200µL), occupied by CBX1 chromodomain at a concentration of 110 µM. Data was fitted to a single binding site model using Microcal ITC200 Software with Origin Lab 7.
as §8
In general terms: ITC needs no label: the signal is the heat of the interaction.

Assay [8] has as its target T1, CBX1 chromodomain. Described as above. The conditions noted are these: ITC, T 288.15 K in Table S6.
For assay [9], the system named is KDM4E. Briefly: Demethylase activity of wild type KDM4E on peptide substrates (MALDI-TOF MS). Type of assay: biochemical. Conditions: 10 µM enzyme, 10 µM peptide, 1 mM 2OG, 50 mM Tris pH 8, 37°C, three hours. Here is the method:
200 FPLC column. The proteins were concentrated via centrifugation. Protein concentration was determined using Bradford assay.
The N-terminal 6xHis-tagged KDM4E construct for bacterial expression was purchased from Addgene (#38990) and expressed following reported method.8 The wild type KDM4E plasmid was transformed into E. Coli BL21 (DE3) competent cells (Invitrogen) using pNIC28-Bsa4 kanamycin-resistant vector. A single colony was grown overnight at 37 °C in 10 mL of Luria-Bertani (LB) broth in the presence of 50 μg/mL kanamycin and 35 μg/mL chloramphenicol. The culture was diluted 100-fold and allowed to grow at 37 °C to an optical density (OD600) of 0.8, and protein expression was induced overnight at 17 °C with 1 mM IPTG in an Innova 44® Incubator shaker (New Brunswick Scientific). KDM4E was purified from pelleted cells by resuspending in lysis buffer (50 mM Tris-HCl pH 8.0, 200 mM NaCl, 5 mM β-ME, 10% glycerol, 25 mM imidazole, lysozyme, DNase, and Pierce protease inhibitor cocktail). The cells were lysed by sonication at 60 mA, 10 seconds on followed by 10 seconds off, for a total of 2 minutes. The cell debris was pelleted at 13,000 rpm for 40 minutes. The soluble cell extracts were incubated with Ni-NTA agarose resin (Thermo) according to manufactures protocol. […] Bradford Dye (BioRad) was used to quantify the protein concentration using BSA as a standard. […]

Entries after “also recorded” stand apart in the source; their conditions may differ. Where no end group is shown, it is not given here. [ ]: non-standard residue; d: D form. Lys(Me3) = C[N+](C)(C)CCCC[C@H](N)C(=O)O

T1 sequence (P83916 21-79 limits assumed): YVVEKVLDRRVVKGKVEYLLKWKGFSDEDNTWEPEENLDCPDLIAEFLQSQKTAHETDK

Take “GRSGRYGRKGVAINFVK [compound 21, eIF4A3-K374me0 peptide]”: in [1], the “methylation by DOT1L (in words)” value is given as “failed to methylate”. Besides, the “methylation by METTL20 (in words)” value in assay [2] was “failed to methylate”. Moreover, the “methylation by METTL21A (in words)” value in assay [3] was “failed to methylate”. For the same substance, the “methylation by METTL21C (in words)” value in [4] was “failed to methylate”. Moreover, the “methylation by G9a (in words)” value in assay [5] is “also methylated eIF4A3-K374me0; also recorded: di- and trimethylation”. Further, in assay [6], the “methylation by SUV39H2 (in words)” value is on record as “also methylated eIF4A3-K374me0; also recorded: monomethylated”. For the same substance, in assay [7], the “binding to CBX1 chromodomain (in words)” value is reported as “no detectable interaction”. Also, in assay [8], the TΔS turned out to be 0 kcal/mol, the ΔG was 0 kcal/mol, the ΔH amounted to 0 kcal/mol and the ΔS came to 0 cal/mol/degree.
Take “NTKRESGR[Lys(Me3)]VQSGNINA [compound 15, TCPG-K21me3 peptide]”: in assay [9], the “demethylation by KDM4E” value is reported as “marginally demethylated only by KDM4E”.
